As usually defined, the CC50 is the concentration giving 50% cytotoxicity. A lower CC50 goes with harm at low concentration.

This is an account of results in ChEMBL document CHEMBL4513141, “CO-ADD screening of NIH (USA) - Clinical Collection” (2021).

In brackets after ≈: the same amount, converted by molar mass. Structures can show the parent of a compound that is named as a salt.

Test [1] deals with Klebsiella pneumoniae. Nature of the test: microbe, parasite or virus in culture. To be noted: ATCC 700603, 18 h, ASSAY_TEST Inhibition of Bacterial Growth, detection method Absorption (OD600), MEDIA CAMHB, plate type 384well, NBS, CORNING #3640.
Description: Antibacterial activity against Klebsiella pneumoniae MDR ATCC 70063 (CO-ADD:GN_003); MIC in CAMBH media using NBS plates, by OD(600)
Test [2] concerns Escherichia coli. Put plainly: microbe, parasite or virus in culture. To be noted: ATCC 25922, 18 h, ASSAY_TEST Inhibition of Bacterial Growth, detection method Absorption (OD600), MEDIA CAMHB, plate type 384well, NBS, CORNING #3640.
Description: Antibacterial activity against Escherichia coli ATCC 25922 (CO-ADD:GN_001); MIC in CAMBH media using NBS plates, by OD(600)
For test [3], the system named is Acinetobacter baumannii. Put plainly: microbe, parasite or virus in culture. As to conditions: ATCC 19606, 18 h, ASSAY_TEST Inhibition of Bacterial Growth, detection method Absorption (OD600), MEDIA CAMHB, plate type 384well, NBS, CORNING #3640.
Description: Antibacterial activity against Acinetobacter baumannii ATCC 19606 (CO-ADD:GN_034); MIC in CAMBH media using NBS plates, by OD600
The subject of test [4] is Cryptococcus neoformans.
Description: Antifungal activity against Cryptococcus neoformans H99 ATCC 208821 (CO-ADD:FG_002); MIC in YNB media using NBS plates, by Resazurin OD(600-570)
For test [5], the system named is Staphylococcus aureus. Nature of the test: microbe, parasite or virus in culture. To be noted: ATCC 43300, 18 h, ASSAY_TEST Inhibition of Bacterial Growth, detection method Absorption (OD600), MEDIA CAMHB, plate type 384well, NBS, CORNING #3640.
Description: Antibacterial activity against Staphylococcus aureus MRSA ATCC 43300 (CO-ADD:GP_020); MIC in CAMBH media, using NBS plates, by OD(600)
Test [6] deals with Pseudomonas aeruginosa. Nature of the test: microbe, parasite or virus in culture. As to conditions: ATCC 27853, 18 h, ASSAY_TEST Inhibition of Bacterial Growth, detection method Absorption (OD600), MEDIA CAMHB, plate type 384well, NBS, CORNING #3640.
Description: Antibacterial activity against Pseudomonas aeruginosa ATCC 27853 (CO-ADD:GN_042); MIC in CAMBH media using NBS plates, by OD(600)
Test [7] relates to Candida albicans. Nature of the test: microbe, parasite or virus in culture. As to conditions: ATCC 90028, ASSAY_TEST Inhibition of Fungal Growth, detection method Absorption (OD530), plate type 384well, NBS, CORNING #3640.
Description: Antifungal activity against Candida albicans ATCC 90028 (CO-ADD:FG_001); MIC in YNB media using NBS plates, by OD630
Test [8] deals with HEK293. Put plainly: cells. The format is functional, Homo sapiens, ATCC CRL1573. As to conditions: Homo sapiens, ATCC CRL1573, HEK293; ASSAY_TEST Inhibition of Cell Viability; detection method Resazurin; Fluorescence (ex560/em590); MEDIA DMEM with 10% FBS; plate type 384well; TC; CORNING #3712; time 18 hr. Background: The colour change of resazurin is a common sign of viable cells or microbes.

Turning to `CC1(C)SC2C(NC(=O)C(N)c3ccccc3)C(=O)N2C1C(=O)O` (centres undefined), the MIC in test [1], in test [2], in test [3], in test [4], in test [5] and in test [6] was greater than 10 µM throughout. Further, in test [7], the MIC was greater than 10 µM. In test [8], the 50% cytotoxic concentration (CC50) is greater than 10 µM.

As for `C/C(=C\C(=O)OCCCCCCCCC(=O)O)C[C@@H]1OC[C@H](C[C@@H]2O[C@H]2[C@@H](C)[C@H](C)O)[C@@H](O)[C@H]1O` [MUPIROCIN], the MIC in test [1] was greater than 10 µM; in test [2], greater than 10 µM; in test [3], greater than 10 µM; in test [4] it was greater than 10 µM; in test [5] it was 0.312 µM (≈ 0.156 µg/mL); in test [6], greater than 10 µM. For the same compound, the MIC in test [7] stood at 10 µM (≈ 5.01 µg/mL). The CC50 in test [8] is greater than 10 µM.

For the compound `CCc1nc(N)nc(N)c1-c1ccc(Cl)cc1` [PYRIMETHAMINE], the MIC in test [1] was greater than 10 µM; in test [2], greater than 10 µM; in test [3] it was greater than 10 µM; in test [4] it was greater than 10 µM; in test [5], 5 µM (≈ 1.24 µg/mL); in test [6], greater than 10 µM. The compound also had an MIC in test [7] greater than 10 µM. For the same compound, the CC50 in test [8] was greater than 10 µM.

Consider `NC1CCN(c2nc3c(cc2F)c(=O)c(C(=O)O)cn3-c2ccc(F)cc2F)C1` (centres undefined) [TOSUFLOXACIN TOSYLATE], for which the MIC in test [1] was 1.25 µM; in test [2], no more than 0.0781 µM; in test [3] it was 0.625 µM; in test [4] it was greater than 10 µM; in test [5], no more than 0.0781 µM; in test [6] it was 0.312 µM. In addition, the MIC in test [7] was greater than 10 µM. The compound also showed a 50% cytotoxic concentration (CC50) in test [8] greater than 10 µM.

As for `COc1cc2nc(N3CCN(C(=O)c4ccco4)CC3)nc(N)c2cc1OC`, the MIC in test [1], in test [2], in test [3], in test [4], in test [5] and in test [6] was greater than 10 µM each time. In test [7], this compound displayed an MIC greater than 10 µM. For the same compound, the CC50 in test [8] was greater than 10 µM.

As to `O=C(NC(CO)C(O)c1ccc([N+](=O)[O-])cc1)C(Cl)Cl` (centres undefined), the MIC was greater than 10 µM in test [1]; 10 µM (≈ 3.23 µg/mL) in test [2]; greater than 10 µM in test [3]; greater than 10 µM in test [4]; greater than 10 µM in test [5]; greater than 10 µM in test [6]. The compound also registered an MIC in test [7] greater than 10 µM. Also, the CC50 in test [8] is greater than 10 µM.

Regarding `C[C@@H](c1ncncc1F)[C@](O)(Cn1cncn1)c1ccc(F)cc1F` [VORICONAZOLE], the MIC in test [1] is greater than 10 µM; in test [2], greater than 10 µM; in test [3], greater than 10 µM; in test [4], 0.625 µM (≈ 0.218 µg/mL); in test [5], greater than 10 µM; in test [6], greater than 10 µM. In test [7], this compound came in with an MIC of no more than 0.0781 µM. In test [8], this compound had a CC50 greater than 10 µM.

As to `CN(CCCN1c2ccccc2CCc2ccccc21)CC(=O)c1ccc(Cl)cc1` [LOFEPRAMINE], the MIC in test [1], in test [2], in test [3], in test [4], in test [5] and in test [6] was greater than 10 µM throughout. This compound displayed an MIC in test [7] greater than 10 µM. In test [8], this compound returned a CC50 greater than 10 µM.

With `CC(=O)Oc1ccccc1C(=O)Nc1ncc([N+](=O)[O-])s1` [NITAZOXANIDE], the MIC in test [1], in test [2], in test [3], in test [4], in test [5] and in test [6] was greater than 10 µM each time. The compound also gave an MIC in test [7] greater than 10 µM. The 50% cytotoxic concentration (CC50) in test [8] was greater than 10 µM.

Consider `CON=C(C(=O)N[C@@H]1C(=O)N2C(C(=O)O)=C(COC(N)=O)CS[C@H]12)c1ccco1`, for which the MIC is greater than 10 µM in test [1]; 10 µM (≈ 4.24 µg/mL) in test [2]; greater than 10 µM in test [3]; greater than 10 µM in test [4]; 5 µM (≈ 2.12 µg/mL) in test [5]; greater than 10 µM in test [6]. In test [7], this compound returned an MIC greater than 10 µM. For the same compound, in test [8], the CC50 is greater than 10 µM.

With `CCN1CCN(C(=O)N[C@@H](C(=O)N[C@@H]2C(=O)N3[C@@H]2SC(C)(C)[C@@H]3C(=O)O)c2ccccc2)C(=O)C1=O` [PIPERACILLIN SODIUM], the MIC was greater than 10 µM in test [1]; 10 µM in test [2]; 10 µM in test [3]; greater than 10 µM in test [4]; greater than 10 µM in test [5]; greater than 10 µM in test [6]. Moreover, in test [7], the MIC was greater than 10 µM. In test [8], this compound yielded a 50% cytotoxic concentration (CC50) greater than 10 µM.

As for `COc1cc(NC(C)CCCN)c2ncccc2c1` (centres undefined) [PRIMAQUINE PHOSPHATE], the MIC in test [1], in test [2], in test [3], in test [4], in test [5] and in test [6] was greater than 10 µM in each case. Moreover, the MIC in test [7] was greater than 10 µM. In test [8], this compound gave a CC50 greater than 10 µM.

As to `C[C@H]1O[C@H](O[C@H]2[C@H](O)[C@@H](O)[C@@H](O[C@H]3[C@H](O)[C@@H](O)C(O)O[C@@H]3CO)O[C@@H]2CO)[C@H](O)[C@@H](O)[C@@H]1N[C@H]1C=C(CO)[C@@H](O)[C@H](O)[C@H]1O` (some centres undefined) [ACARBOSE], the MIC in test [1], in test [2], in test [3], in test [4], in test [5] and in test [6] was greater than 10 µM each time. In test [7], this compound had an MIC greater than 10 µM. In test [8], the CC50 is greater than 10 µM.

Consider `CC[C@H]1OC(=O)[C@H](C)[C@@H](O[C@H]2C[C@@](C)(OC)[C@@H](O)[C@H](C)O2)[C@H](C)[C@@H](O[C@@H]2O[C@H](C)C[C@H](N(C)C)[C@H]2O)[C@](C)(OC)C[C@@H](C)C(=O)[C@H](C)[C@@H](O)[C@]1(C)O` [CLARITHROMYCIN], for which the MIC in test [1] was greater than 10 µM; in test [2] it was greater than 10 µM; in test [3], greater than 10 µM; in test [4], greater than 10 µM; in test [5], greater than 10 µM; in test [6], 10 µM (≈ 7.48 µg/mL). Besides, the MIC in test [7] was greater than 10 µM. Besides, in test [8], the cytotoxic concentration (CC50) was greater than 10 µM.

As for `CC(=O)N1CCN(c2ccc(OCC3COC(Cn4ccnc4)(c4ccc(Cl)cc4Cl)O3)cc2)CC1` (centres undefined) [KETOCONAZOLE], the MIC was greater than 10 µM in test [1]; greater than 10 µM in test [2]; greater than 10 µM in test [3]; 2.5 µM (≈ 1.33 µg/mL) in test [4]; greater than 10 µM in test [5]; greater than 10 µM in test [6]. The same compound had an MIC in test [7] of 0.156 µM (≈ 0.0831 µg/mL). The compound also displayed a CC50 in test [8] greater than 10 µM.

For the compound `CN(C)c1ccc(O)c2c1C[C@H]1C[C@H]3[C@H](N(C)C)C(O)=C(C(N)=O)C(=O)[C@@]3(O)C(O)=C1C2=O` [MINOCYCLINE HYDROCHLORIDE], the MIC in test [1] is greater than 10 µM; in test [2], 2.5 µM; in test [3], greater than 10 µM; in test [4], greater than 10 µM; in test [5], 0.312 µM; in test [6], 0.312 µM. In addition, in test [7], the MIC is greater than 10 µM. In test [8], this compound came in with a CC50 of 0.0983 µM.

Take `COc1c(N2C[C@@H]3CCCN[C@@H]3C2)c(F)cc2c(=O)c(C(=O)O)cn(C3CC3)c12` [MOXIFLOXACIN HYDROCHLORIDE]: the MIC in test [1] is 5 µM; in test [2], no more than 0.0781 µM; in test [3], 2.5 µM; in test [4], greater than 10 µM; in test [5], 0.156 µM; in test [6], 0.625 µM. This compound also returned an MIC in test [7] greater than 10 µM. Also, in test [8], the CC50 was greater than 10 µM.

As to `CCOC(=O)CCC(=O)OC1C(OC2C(C)C(OC3CC(C)(OC)C(O)C(C)O3)C(C)C(=O)OC(CC)C(C)(O)C(O)C(C)C(=O)C(C)CC2(C)O)OC(C)CC1N(C)C` (centres undefined), the MIC in test [1], in test [2], in test [3], in test [4], in test [5] and in test [6] was greater than 10 µM in each case. The compound also displayed an MIC in test [7] greater than 10 µM. The compound also displayed a CC50 in test [8] greater than 10 µM.

`Cc1noc(NS(=O)(=O)c2ccc(N)cc2)c1C` [SULFISOXAZOLE]: the MIC in test [1], in test [2], in test [3], in test [4], in test [5] and in test [6] was greater than 10 µM each time. In addition, in test [7], the MIC was greater than 10 µM. For the same compound, in test [8], the CC50 was greater than 10 µM.

`CCCCc1oc2ccccc2c1C(=O)c1cc(I)c(OCCN(CC)CC)c(I)c1` [AMIODARONE HYDROCHLORIDE]: the MIC is greater than 10 µM in test [1]; greater than 10 µM in test [3]; 10 µM in test [4]; greater than 10 µM in test [5]; greater than 10 µM in test [6]; greater than 10 µM in test [7]. Further, the CC50 in test [8] is greater than 10 µM.
